In patent publication US10897901B2, “Herbicidal composition” (FMC Corporation, priority 2007, dated 2021):

Tested on: yellow nutsedge (Cyperus esculentusi)
Experiment: Example 3 post-emergence greenhouse pot test, nutsedge
Assay type: in vivo
Procedure: Test compositions containing sulfentrazone (DISMISS™ Turf Herbicide), quniclorac, (DRIVE® 75 DF Herbicide) or mixture of sulfentrazone and quinclorac in a three to one ratio, prepared as described above, were diluted with water to provide the appropriate test rate concentrations. A nonionic surfactant (0.25%) was added to each test solution.
The test weeds include Red River crabgrass (Digitaria ciliaris) and yellow nutsedge (Cyperus esculentusi).
For post-emergence testing, three disposable 3 inch square pots for each rate of application of each herbicide were filled with a soil, comprised of peat moss, vermiculite, bark ash, pine bark, limestone and a wetting agent, to which 8 to 10 seeds were planted. The pots were placed in a greenhouse and watered daily, thus allowing the seeds to germinate and the foliage to develop.
Pots designated for treatment were placed on a conveyor belt and the conveyor belt fed under a spray nozzle mounted about ten inches above the foliage. The spray of herbicidal solution was commenced and once stabilized; the pots were passed under the spray at a speed to receive a coverage equivalent of 30 gallons per acre. The application rates are those shown in Table 3 below for the individual herbicidal solutions and the mixture of sulfentrazone and quinclorac. The post-emergence pots were immediately placed in the green-house and not watered until 24 hours after treatment with the test solution. Thereafter they were regularly watered at ground level. The control of weeds was evaluated in each experimental test from 1 to 22 days after treatment (DAT). The results, shown as an average of the replications, were compared with results observed in untreated control pots in the same tests.
Percent control was determined by a method similar to the 0 to 100 rating system disclosed in “Research Methods in Weed Science,” 2nd ed., B. Truelove, Ed.; Southern Weed Science Society; Auburn University, Auburn, Ala., 1977.

[1] = 1-5 leaf stage, 7 days old, 0.375 lb ai/acre, 1 DAT
[2] = 1-5 leaf stage, 7 days old, 0.375 lb ai/acre, 3 DAT
[3] = 1-5 leaf stage, 7 days old, 0.375 lb ai/acre, 7 DAT
[4] = 1-5 leaf stage, 7 days old, 0.375 lb ai/acre, 14 DAT
[5] = 1-5 leaf stage, 7 days old, 0.375 lb ai/acre, 21 DAT
[6] = 5-7 leaves, cut to 6 cm tall, 28 days old, 0.375 lb ai/acre, 1 DAT
[7] = 5-7 leaves, cut to 6 cm tall, 28 days old, 0.375 lb ai/acre, 3 DAT
[8] = 5-7 leaves, cut to 6 cm tall, 28 days old, 0.375 lb ai/acre, 7 DAT
[9] = 5-7 leaves, cut to 6 cm tall, 28 days old, 0.375 lb ai/acre, 14 DAT
[10] = 5-7 leaves, cut to 6 cm tall, 28 days old, 0.375 lb ai/acre, 21 DAT

Cc1nn(-c2cc(NS(C)(=O)=O)c(Cl)cc2Cl)c(=O)n1C(F)F [A, N-[2,4-dichloro-5-[4-(difluoromethyl)-4,5-dihydro-3-methyl-5-oxo-1H-1,2,4-triazol-1-yl]phenyl]methanesulfonamide]
Percent Control (1-5 leaf stage, 7 days old, 0.125 lb ai/acre, 1 DAT): 50% | Percent Control (1-5 leaf stage, 7 days old, 0.125 lb ai/acre, 3 DAT): 50% | Percent Control (1-5 leaf stage, 7 days old, 0.125 lb ai/acre, 7 DAT): 63% | Percent Control (1-5 leaf stage, 7 days old, 0.125 lb ai/acre, 14 DAT): 70% | Percent Control (1-5 leaf stage, 7 days old, 0.125 lb ai/acre, 21 DAT): 67% | Percent Control (1-5 leaf stage, 7 days old, 0.25 lb ai/acre, 1 DAT): 70% | Percent Control (1-5 leaf stage, 7 days old, 0.25 lb ai/acre, 3 DAT): 85% | Percent Control (1-5 leaf stage, 7 days old, 0.25 lb ai/acre, 7 DAT): 77% | Percent Control (1-5 leaf stage, 7 days old, 0.25 lb ai/acre, 14 DAT): 68% | Percent Control (1-5 leaf stage, 7 days old, 0.25 lb ai/acre, 21 DAT): 50% | Percent Control [1]: 75% | Percent Control [2]: 91% | Percent Control [3]: 95% | Percent Control [4]: 73% | Percent Control [5]: 70% | Percent Control (5-7 leaves, cut to 6 cm tall, 28 days old, 0.125 lb ai/acre, 1 DAT): 0% | Percent Control (5-7 leaves, cut to 6 cm tall, 28 days old, 0.125 lb ai/acre, 3 DAT): 80% | Percent Control (5-7 leaves, cut to 6 cm tall, 28 days old, 0.125 lb ai/acre, 7 DAT): 85% | Percent Control (5-7 leaves, cut to 6 cm tall, 28 days old, 0.125 lb ai/acre, 14 DAT): 70% | Percent Control (5-7 leaves, cut to 6 cm tall, 28 days old, 0.125 lb ai/acre, 21 DAT): 60% | Percent Control (5-7 leaves, cut to 6 cm tall, 28 days old, 0.25 lb ai/acre, 1 DAT): 0% | Percent Control (5-7 leaves, cut to 6 cm tall, 28 days old, 0.25 lb ai/acre, 3 DAT): 75% | Percent Control (5-7 leaves, cut to 6 cm tall, 28 days old, 0.25 lb ai/acre, 7 DAT): 80% | Percent Control (5-7 leaves, cut to 6 cm tall, 28 days old, 0.25 lb ai/acre, 14 DAT): 80% | Percent Control (5-7 leaves, cut to 6 cm tall, 28 days old, 0.25 lb ai/acre, 21 DAT): 90% | Percent Control [6]: 0% | Percent Control [7]: 90% | Percent Control [8]: 90% | Percent Control [9]: 90% | Percent Control [10]: 90%

O=C(O)c1c(Cl)ccc2cc(Cl)cnc12 [B, 3,7-dichloro-8-quinolinecarboxylic acid]
Percent Control [1]: 0% | Percent Control [2]: 0% | Percent Control [3]: 0% | Percent Control [4]: 0% | Percent Control [5]: 0% | Percent Control (1-5 leaf stage, 7 days old, 0.75 lb ai/acre, 1 DAT): 0% | Percent Control (1-5 leaf stage, 7 days old, 0.75 lb ai/acre, 3 DAT): 0% | Percent Control (1-5 leaf stage, 7 days old, 0.75 lb ai/acre, 7 DAT): 0% | Percent Control (1-5 leaf stage, 7 days old, 0.75 lb ai/acre, 14 DAT): 0% | Percent Control (1-5 leaf stage, 7 days old, 0.75 lb ai/acre, 21 DAT): 0% | Percent Control (1-5 leaf stage, 7 days old, 1.0 lb ai/acre, 1 DAT): 0% | Percent Control (1-5 leaf stage, 7 days old, 1.0 lb ai/acre, 3 DAT): 0% | Percent Control (1-5 leaf stage, 7 days old, 1.0 lb ai/acre, 7 DAT): 0% | Percent Control (1-5 leaf stage, 7 days old, 1.0 lb ai/acre, 14 DAT): 0% | Percent Control (1-5 leaf stage, 7 days old, 1.0 lb ai/acre, 21 DAT): 0% | Percent Control [6]: 0% | Percent Control [7]: 5% | Percent Control [8]: 5% | Percent Control [9]: 5% | Percent Control [10]: 0% | Percent Control (5-7 leaves, cut to 6 cm tall, 28 days old, 0.75 lb ai/acre, 1 DAT): 0% | Percent Control (5-7 leaves, cut to 6 cm tall, 28 days old, 0.75 lb ai/acre, 3 DAT): 0% | Percent Control (5-7 leaves, cut to 6 cm tall, 28 days old, 0.75 lb ai/acre, 7 DAT): 2% | Percent Control (5-7 leaves, cut to 6 cm tall, 28 days old, 0.75 lb ai/acre, 14 DAT): 2% | Percent Control (5-7 leaves, cut to 6 cm tall, 28 days old, 0.75 lb ai/acre, 21 DAT): 0% | Percent Control (5-7 leaves, cut to 6 cm tall, 28 days old, 1.0 lb ai/acre, 1 DAT): 0% | Percent Control (5-7 leaves, cut to 6 cm tall, 28 days old, 1.0 lb ai/acre, 3 DAT): 5% | Percent Control (5-7 leaves, cut to 6 cm tall, 28 days old, 1.0 lb ai/acre, 7 DAT): 5% | Percent Control (5-7 leaves, cut to 6 cm tall, 28 days old, 1.0 lb ai/acre, 14 DAT): 5% | Percent Control (5-7 leaves, cut to 6 cm tall, 28 days old, 1.0 lb ai/acre, 21 DAT): 0%
